The results in this text go back to PubChem BioAssay (NCI).

Test systems include SNB-78 CNS; M19-MEL melanoma; U251 CNS; SN12C renal; K-562 leukemia; DMS 273 small cell lung; UACC-257 melanoma; 786-0 renal; SF-268 CNS; PC-3 prostate.
Test in all cases: NCI tumour cell line growth inhibition, 48 h

Where “and” joins values, the source holds several entries; their conditions need not be identical. Identical values can stand only once.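 48-hour exposure; five concentrations; linearly interpolated endpoints. At the GI50, growth is halved. TGI is the concentration that stops growth completely.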

Regarding `CSC(C1c2ccccc2N(c2ccc(C)cc2)c2[nH]c(=O)n(C)c(=O)c21)S(=O)(=O)c1ccc(C)cc1` (stereo unspecified), the TGI in the test on SNB-78 CNS, with M19-MEL melanoma, in the test on U251 CNS, in the test with SN12C renal, with K-562 leukemia and in the test with DMS 273 small cell lung was > 100 µM throughout. For the same compound, the TGI in the test with UACC-257 melanoma, in the test with 786-0 renal and with SF-268 CNS was > 100 µM in each case.

With `C/C(N=NC(=S)N(C)C)=C1\C=CC=CN1O`, the TGI in the test with PC-3 prostate, with SNB-78 CNS, in the test on M19-MEL melanoma, in the test on U251 CNS, in the test with SN12C renal and in the test with K-562 leukemia was > 100 µM each time. The TGI with DMS 273 small cell lung was > 100 µM; with UACC-257 melanoma, > 100 µM; in the test on 786-0 renal, > 52.2 µM; with SF-268 CNS, > 100 µM.

As for `O=C1CCC(O)=C1N=Nc1ccccc1`, the TGI with SNB-78 CNS, in the test on M19-MEL melanoma, in the test with U251 CNS, with SN12C renal, in the test with K-562 leukemia and in the test on DMS 273 small cell lung was > 100 µM each time. The TGI in the test on UACC-257 melanoma, with 786-0 renal and with SF-268 CNS was > 100 µM in each case.

Consider `c1ccc(C2Nc3ccccc3C3OCCCC23)cc1` (stereo unspecified), for which the TGI with SNB-78 CNS is > 100 µM; with M19-MEL melanoma, > 100 µM; with U251 CNS, 38.3 µM; with SN12C renal it was > 100 µM; in the test on K-562 leukemia, > 100 µM; with DMS 273 small cell lung it was 97.1 µM. For the same compound, the TGI with UACC-257 melanoma, with 786-0 renal and with SF-268 CNS was > 100 µM throughout.

`Cc1c(C(=O)/C=C/c2ccccc2)[n+](=O)c2ccccc2n1[O-]`: the TGI with SNB-78 CNS is > 100 µM; with M19-MEL melanoma it was 30 µM; with U251 CNS it was 29.7 µM; in the test with SN12C renal, 33.6 µM; in the test on K-562 leukemia, 51.9 µM; with DMS 273 small cell lung, 30.1 µM. Further, the TGI is 31.3 µM in the test with UACC-257 melanoma, 32 µM in the test with 786-0 renal and 40.1 µM in the test on SF-268 CNS.

Regarding `Nc1ccc2cc3ccc(N)cc3nc2c1`, the GI50 in the test on PC-3 prostate was 0.857 µM and 1.96 µM and 1.5 µM; in the test with SN12C renal it was 1.18 µM; in the test with UACC-257 melanoma, 0.994 µM; in the test on 786-0 renal, 1.97 µM [middle of 4 runs]; with SF-268 CNS, 1.12 µM. Besides, the TGI in the test on PC-3 prostate was 4.88 µM and 24.7 µM; in the test with SNB-78 CNS, 9.23 µM; with M19-MEL melanoma it was 4.07 µM; in the test with U251 CNS, 11.4 µM and 10.4 µM and 9.94 µM; with DMS 273 small cell lung it was 3.33 µM; in the test on UACC-257 melanoma it was 5.03 µM [middle of 4 runs]. Moreover, the TGI is 11.8 µM [middle of 4 runs] with 786-0 renal and 10.2 µM [middle of 4 runs] in the test with SF-268 CNS.

Take `S=C1OC2CCCC[C@H]2O1` (stereo partly specified): the TGI with SNB-78 CNS, with M19-MEL melanoma, in the test with U251 CNS, in the test on SN12C renal, with K-562 leukemia and in the test on DMS 273 small cell lung was > 100 µM in each case. Further, the TGI in the test with UACC-257 melanoma, in the test on 786-0 renal and in the test on SF-268 CNS was > 100 µM throughout.

For `COc1ccc(CC2NCCc3cc(OC)c(OC)cc32)cc1Br` (stereo unspecified), the TGI is > 100 µM with PC-3 prostate; > 100 µM with SNB-78 CNS; 41.5 µM in the test with M19-MEL melanoma; > 100 µM in the test on U251 CNS; > 100 µM in the test on SN12C renal; 45.6 µM in the test on K-562 leukemia. In addition, the TGI with DMS 273 small cell lung is 57.5 µM; in the test with UACC-257 melanoma, 45.6 µM; with 786-0 renal, > 100 µM; with SF-268 CNS, > 100 µM.

`N#Cc1cccnc1Cl`: the TGI with SNB-78 CNS, in the test with M19-MEL melanoma, in the test with U251 CNS, in the test with SN12C renal, with K-562 leukemia and in the test on DMS 273 small cell lung was > 100 µM each time. In addition, the TGI in the test with UACC-257 melanoma, with 786-0 renal and in the test on SF-268 CNS was > 100 µM in each case.

Consider `O=C1CC2CCCC23CC2(CCN13)OCCO2` (stereo unspecified), for which the TGI with SNB-78 CNS, with M19-MEL melanoma, with U251 CNS, in the test on SN12C renal, in the test with K-562 leukemia and in the test on DMS 273 small cell lung was > 100 µM throughout. For the same compound, the TGI in the test with UACC-257 melanoma, in the test with 786-0 renal and in the test on SF-268 CNS was > 100 µM in each case.

For the compound `CCCSc1nc(COC(=O)NC)c(COC(=O)NC)n1C`, the TGI in the test with SNB-78 CNS, with M19-MEL melanoma, in the test with U251 CNS, in the test on SN12C renal, in the test with K-562 leukemia and with DMS 273 small cell lung was > 100 µM throughout. The TGI in the test on UACC-257 melanoma, in the test on 786-0 renal and with SF-268 CNS was > 100 µM throughout. Besides, the GI50 in the test with SF-268 CNS is 44.4 µM and > 100 µM.
